The target of one test is TYK2 JH2 domain (Homo sapiens (Human), UniProt P29597). Put plainly: TYK2 JH2 NanoBRET assay. In kind it is binding. The protocol: HEK293T cells were transfected with NanoLuc-TYK2 JH2 Fusion Vector (Promega, customized) using Trans-IT reagent (Mirus, #MIR2700) and incubated for overnight in 37° C. incubator. […] Add 85 µL of cell suspension into white, polypropylene, 96-well plates (Corning, #3600). 90 µL of cells were used for no tracer control samples. 5 µL of diluted NanoBRET K10 tracer (Promega, #CS1810C122) were added to cells to a final concentration of 0.5 µM. Test compounds were diluted into DMSO, and then phenol-free opti-MEM to 10X of final concentration. 10 µL of diluted compounds were added into each well. The cells were incubated with test compound and tracer for 2 hours. 3XNanoBRET® Nano-Glo® Substrate and Extracellular NanoLuc® Inhibitor mixture were prepared and 50 µL of the mixture were added into the wells and mixed. […] NanoBRET signal was determined by using the ratio of acceptor signal and donor signal.
TYK2 JH2 domain, sequence (P29597 589-875): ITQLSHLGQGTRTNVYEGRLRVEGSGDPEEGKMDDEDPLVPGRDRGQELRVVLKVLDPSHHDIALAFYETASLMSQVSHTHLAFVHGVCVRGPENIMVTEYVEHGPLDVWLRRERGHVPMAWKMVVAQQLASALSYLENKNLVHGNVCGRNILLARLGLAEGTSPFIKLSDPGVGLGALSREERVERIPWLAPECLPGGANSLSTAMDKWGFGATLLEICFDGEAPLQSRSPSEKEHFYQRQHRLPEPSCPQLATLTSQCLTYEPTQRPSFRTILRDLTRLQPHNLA
In general terms: Bioluminescence resonance energy transfer reports proximity on the nanometre scale.

A further test deals with human JAK1 (Homo sapiens (Human), UniProt P23458). Put plainly: JAK1 TR-FRET kinase assay. In kind it is biochemical. Particulars: TR-FRET, JAK1 2.5 nM. (In general: Time-resolved FRET reads energy transfer from a long-lived donor to a nearby acceptor.)
human JAK1, sequence (P23458 whole entry): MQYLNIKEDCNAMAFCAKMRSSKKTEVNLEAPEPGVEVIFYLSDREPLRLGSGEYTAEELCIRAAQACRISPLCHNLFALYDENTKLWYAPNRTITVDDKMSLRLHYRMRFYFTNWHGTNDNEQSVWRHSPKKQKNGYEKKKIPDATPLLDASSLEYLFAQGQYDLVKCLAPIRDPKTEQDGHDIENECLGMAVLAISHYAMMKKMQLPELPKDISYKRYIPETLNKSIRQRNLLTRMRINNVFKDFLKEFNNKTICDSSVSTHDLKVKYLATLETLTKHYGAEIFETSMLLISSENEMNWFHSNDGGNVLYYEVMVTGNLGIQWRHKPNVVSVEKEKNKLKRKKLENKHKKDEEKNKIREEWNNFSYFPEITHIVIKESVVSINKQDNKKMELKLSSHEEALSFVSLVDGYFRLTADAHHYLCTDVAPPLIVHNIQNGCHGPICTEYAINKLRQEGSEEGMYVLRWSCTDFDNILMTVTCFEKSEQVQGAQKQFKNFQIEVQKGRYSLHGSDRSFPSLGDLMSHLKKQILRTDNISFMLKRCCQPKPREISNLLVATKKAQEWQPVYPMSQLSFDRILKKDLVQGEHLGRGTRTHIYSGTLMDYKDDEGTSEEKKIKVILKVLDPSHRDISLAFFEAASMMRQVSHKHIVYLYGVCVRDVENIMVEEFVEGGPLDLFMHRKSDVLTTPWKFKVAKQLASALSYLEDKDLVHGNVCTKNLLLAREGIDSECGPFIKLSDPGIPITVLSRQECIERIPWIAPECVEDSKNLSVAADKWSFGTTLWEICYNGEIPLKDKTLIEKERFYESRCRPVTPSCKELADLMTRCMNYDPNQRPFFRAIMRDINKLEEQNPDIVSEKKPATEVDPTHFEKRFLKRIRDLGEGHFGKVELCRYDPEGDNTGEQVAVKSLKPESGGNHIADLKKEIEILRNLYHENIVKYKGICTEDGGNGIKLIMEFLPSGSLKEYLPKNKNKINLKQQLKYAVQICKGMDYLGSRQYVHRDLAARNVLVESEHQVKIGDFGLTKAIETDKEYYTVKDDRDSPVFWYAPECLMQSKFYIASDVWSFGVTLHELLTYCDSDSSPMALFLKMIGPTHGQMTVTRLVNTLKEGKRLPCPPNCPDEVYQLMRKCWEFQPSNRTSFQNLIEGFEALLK
The target of another test is human JAK2 (Homo sapiens (Human), UniProt O60674). Put plainly: JAK2 TR-FRET kinase assay. In kind it is biochemical. The note with it: JAK2 0.025 nM.
human JAK2, sequence (O60674 whole entry): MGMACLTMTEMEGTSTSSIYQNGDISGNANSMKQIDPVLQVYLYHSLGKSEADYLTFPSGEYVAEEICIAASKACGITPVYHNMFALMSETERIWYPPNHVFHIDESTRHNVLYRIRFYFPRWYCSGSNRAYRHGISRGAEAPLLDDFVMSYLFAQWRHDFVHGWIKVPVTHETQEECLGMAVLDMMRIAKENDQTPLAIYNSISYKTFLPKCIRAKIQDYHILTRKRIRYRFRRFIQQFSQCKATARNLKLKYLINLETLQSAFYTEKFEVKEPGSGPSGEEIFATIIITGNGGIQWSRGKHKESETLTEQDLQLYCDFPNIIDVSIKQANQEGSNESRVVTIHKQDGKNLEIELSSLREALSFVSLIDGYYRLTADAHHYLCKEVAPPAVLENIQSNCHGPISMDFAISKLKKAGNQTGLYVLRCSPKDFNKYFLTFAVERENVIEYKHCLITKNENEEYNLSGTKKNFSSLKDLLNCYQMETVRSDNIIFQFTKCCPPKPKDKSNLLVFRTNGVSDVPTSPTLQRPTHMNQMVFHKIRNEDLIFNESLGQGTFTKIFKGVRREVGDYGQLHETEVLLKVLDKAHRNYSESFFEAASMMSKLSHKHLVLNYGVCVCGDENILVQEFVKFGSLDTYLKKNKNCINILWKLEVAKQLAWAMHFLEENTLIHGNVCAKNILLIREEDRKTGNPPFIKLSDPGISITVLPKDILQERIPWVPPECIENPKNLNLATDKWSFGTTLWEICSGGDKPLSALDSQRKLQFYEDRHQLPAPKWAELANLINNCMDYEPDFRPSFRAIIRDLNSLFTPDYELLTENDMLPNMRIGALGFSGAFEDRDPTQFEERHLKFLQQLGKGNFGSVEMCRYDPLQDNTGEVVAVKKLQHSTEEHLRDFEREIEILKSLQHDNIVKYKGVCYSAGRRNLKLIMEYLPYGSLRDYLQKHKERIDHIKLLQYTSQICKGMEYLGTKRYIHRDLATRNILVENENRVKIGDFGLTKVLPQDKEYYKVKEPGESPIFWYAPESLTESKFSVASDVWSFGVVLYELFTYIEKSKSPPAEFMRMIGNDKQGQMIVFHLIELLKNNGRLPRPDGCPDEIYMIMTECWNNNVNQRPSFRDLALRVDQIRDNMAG
In another test the target is human JAK3 (Homo sapiens (Human), UniProt P52333). Put plainly: JAK3 TR-FRET kinase assay. In kind it is biochemical. Particulars: JAK3 0.0125 nM.
human JAK3, sequence (P52333 whole entry): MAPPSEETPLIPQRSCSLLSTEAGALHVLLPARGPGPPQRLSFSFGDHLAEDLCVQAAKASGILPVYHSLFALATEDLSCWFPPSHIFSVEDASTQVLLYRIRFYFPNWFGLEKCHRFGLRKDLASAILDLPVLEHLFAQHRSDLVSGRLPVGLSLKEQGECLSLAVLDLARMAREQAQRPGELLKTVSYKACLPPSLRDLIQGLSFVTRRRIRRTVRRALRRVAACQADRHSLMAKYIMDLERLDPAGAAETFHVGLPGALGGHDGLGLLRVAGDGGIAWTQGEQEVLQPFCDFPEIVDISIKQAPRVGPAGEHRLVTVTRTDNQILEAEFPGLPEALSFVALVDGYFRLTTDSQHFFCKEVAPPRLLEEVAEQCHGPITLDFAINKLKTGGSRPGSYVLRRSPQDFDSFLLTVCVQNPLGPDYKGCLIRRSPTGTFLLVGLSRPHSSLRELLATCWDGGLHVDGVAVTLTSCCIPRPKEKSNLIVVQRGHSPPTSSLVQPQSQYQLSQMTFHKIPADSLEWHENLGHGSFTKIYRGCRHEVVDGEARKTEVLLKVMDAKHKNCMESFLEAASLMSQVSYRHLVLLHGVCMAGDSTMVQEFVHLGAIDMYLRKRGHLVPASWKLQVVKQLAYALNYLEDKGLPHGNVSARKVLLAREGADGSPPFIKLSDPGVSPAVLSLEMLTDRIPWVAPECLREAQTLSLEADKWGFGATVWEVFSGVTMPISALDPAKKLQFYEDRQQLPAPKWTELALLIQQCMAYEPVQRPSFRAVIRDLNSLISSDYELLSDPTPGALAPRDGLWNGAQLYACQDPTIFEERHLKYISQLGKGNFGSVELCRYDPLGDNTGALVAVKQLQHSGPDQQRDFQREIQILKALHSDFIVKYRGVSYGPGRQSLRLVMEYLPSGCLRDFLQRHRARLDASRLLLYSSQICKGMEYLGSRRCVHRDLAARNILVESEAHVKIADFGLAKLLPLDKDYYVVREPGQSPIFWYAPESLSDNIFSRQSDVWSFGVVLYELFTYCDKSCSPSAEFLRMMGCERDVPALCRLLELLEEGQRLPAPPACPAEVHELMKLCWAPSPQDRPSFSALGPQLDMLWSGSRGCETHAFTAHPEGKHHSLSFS
Where [1] appears, read: HEK293T cells, Table 19, read-out: IC50 (nM), TYK2 activity.

Each structure is given as a SMILES string. Read-outs that look alike come from different tables or passages of the source.

With `COc1c(Nc2cc(NC(=O)C3CC3)ncc2C(C)=O)cccc1-c1ncn(C)n1` [Compound 1A, N-(5-acetyl-4-((2-methoxy-3-(1-methyl-1H-1,2,4-triazol-3-yl)phenyl)amino)pyridin-2-yl)cyclopropanecarboxamide], the IC50 (in general, the concentration needed to halve the response being measured) at TYK2 JH2 domain (setting [1]) is less than 5 nM.
The same measure, in the same setting: with `COc1c(Nc2cc(NC(=O)OC(C)(C)C)ncc2C(C)=O)cccc1-c1ncn(C)n1` [Compound 1D] the figure was 50 to 500 nM; with `COc1c(Nc2cc(NC(C)=O)ncc2C(C)=O)cccc1-c1ncn(C)n1` [Compound 1G], 5 to 50 nM.
`CCC(=O)Nc1cc(Nc2cccc(-c3ncn(C)n3)c2OC)c(C(C)=O)cn1` [Compound 1H]: the IC50 on TYK2 JH2 domain (setting [1]) was 5 to 50 nM.
For `CCCC(=O)Nc1cc(Nc2cccc(-c3ncn(C)n3)c2OC)c(C(C)=O)cn1` [Compound 1I], on TYK2 JH2 domain (setting [1]), the concentration for half-maximal inhibition (IC50) was less than 5 nM.
Same read-out and setting: the figure for `COc1c(Nc2cc(NC(=O)C3CCC3)ncc2C(C)=O)cccc1-c1ncn(C)n1` [Compound 1J] is 5 to 50 nM; for `COc1c(Nc2cc(NC(=O)[C@@H]3C[C@@H]3F)ncc2C(C)=O)cccc1-c1ncn(C)n1` [Compound 1K] it is less than 5 nM.
The same measure, in the same setting: the figure for `COc1c(Nc2cc(NC(=O)[C@H]3C[C@H]3F)ncc2C(C)=O)cccc1-c1ncn(C)n1` [Compound 1L] is 5 to 50 nM.
On to `COc1c(Nc2cc(NC(=O)CN(C)C)ncc2C(C)=O)cccc1-c1ncn(C)n1` [Compound 1M], for which the IC50 on TYK2 JH2 domain (setting [1]) lay in the range of 50 to 500 nM.
In the case of `COC(=O)Nc1cc(Nc2cccc(-c3ncn(C)n3)c2OC)c(C(C)=O)cn1` [Compound 1N], the IC50 at TYK2 JH2 domain (setting [1]) is 50 to 500 nM.
As for `COc1c(Nc2cc(NC(=O)CN3CCOCC3)ncc2C(C)=O)cccc1-c1ncn(C)n1` [Compound 1O], the IC50 on TYK2 JH2 domain (setting [1]) was in the range of 50 to 500 nM.
Same read-out and setting: with `COc1c(Nc2cc(NC(=O)N(C)C)ncc2C(C)=O)cccc1-c1ncn(C)n1` [Compound 1P] the figure was 50 to 500 nM.
Regarding `COc1c(Nc2cc(N)ncc2C(C)=O)cccc1-c1ncn(C)n1` [Compound 2, 1-(6-amino-4-((2-methoxy-3-(1-methyl-1H-1,2,4-triazol-3-yl)phenyl)amino)pyridin-3-yl)ethan-1-one], at TYK2 JH2 domain (setting [1]), the IC50 is not below 500 nM.
Still for that read-out and setting: the figure for `COC(=O)c1cnc(NC(=O)C2CC2)cc1Nc1cccc(-c2ncn(C)n2)c1OC` [Compound 3, methyl 6-(cyclopropanecarboxamido)-4-((2-methoxy-3-(1-methyl-1H-1,2,4-triazol-3-yl)phenyl)amino)nicotinate] is less than 5 nM; for `COc1c(Nc2cc(Nc3ccc(F)cc3)ncc2C(C)=O)cccc1-c1ncn(C)n1` [Compound 7B] it is not below 500 nM; for `COc1c(Nc2cc(Nc3ccccn3)ncc2C(C)=O)cccc1-c1ncn(C)n1` [Compound 7C] it is less than 5 nM.
The same measure, in the same setting: with `COc1c(Nc2cc(Nc3cc(C)ccn3)ncc2C(C)=O)cccc1-c1ncn(C)n1` [Compound 7D] the figure was less than 5 nM.
The same measure, in the same setting: with `COc1ccnc(Nc2cc(Nc3cccc(-c4ncn(C)n4)c3OC)c(C(C)=O)cn2)c1` [Compound 7E] the figure was less than 5 nM; with `COc1c(Nc2cc(Nc3cc(C#N)ccn3)ncc2C(C)=O)cccc1-c1ncn(C)n1` [Compound 7F], less than 5 nM; with `COc1c(Nc2cc(Nc3ncccc3F)ncc2C(C)=O)cccc1-c1ncn(C)n1` [Compound 7G], 5 to 50 nM.
With `COc1c(Nc2cc(Nc3ccc(F)cn3)ncc2C(C)=O)cccc1-c1ncn(C)n1` [Compound 7H], the IC50 on TYK2 JH2 domain (setting [1]) was less than 5 nM.
On the same count and under the same terms, the figure for `COc1ccc(Nc2cc(Nc3cccc(-c4ncn(C)n4)c3OC)c(C(C)=O)cn2)nc1` [Compound 7I] is less than 5 nM; for `COc1c(Nc2cc(Nc3cccc(C)n3)ncc2C(C)=O)cccc1-c1ncn(C)n1` [Compound 7J] it is less than 5 nM.
The same measure, in the same setting: the figure for `COc1cccc(Nc2cc(Nc3cccc(-c4ncn(C)n4)c3OC)c(C(C)=O)cn2)n1` [Compound 7K] is less than 5 nM.
On the same count and under the same terms, the figure for `COc1c(Nc2cc(Nc3cc(C)c(F)cn3)ncc2C(C)=O)cccc1-c1ncn(C)n1` [Compound 7L] is less than 5 nM.
With `COc1c(Nc2cc(Nc3cc(C)c(Cl)cn3)ncc2C(C)=O)cccc1-c1ncn(C)n1` [Compound 7M], the half-inhibitory concentration (IC50) on TYK2 JH2 domain (setting [1]) is less than 5 nM.
On the same count and under the same terms, the figure for `COc1c(Nc2cc(Nc3ccc(N4CCOCC4)cn3)ncc2C(C)=O)cccc1-c1ncn(C)n1` [Compound 7N] is less than 5 nM.
Same read-out and setting: with `COc1c(Nc2cc(Nc3ncccn3)ncc2C(C)=O)cccc1-c1ncn(C)n1` [Compound 7O] the figure was 50 to 500 nM; with `COc1c(Nc2cc(Nc3ncc(F)cn3)ncc2C(C)=O)cccc1-c1ncn(C)n1` [Compound 7P], 50 to 500 nM; with `COc1c(Nc2cc(Nc3cc(C)ncn3)ncc2C(C)=O)cccc1-c1ncn(C)n1` [Compound 7Q], less than 5 nM.
For `COc1c(Nc2cc(Nc3ccnc(C)n3)ncc2C(C)=O)cccc1-c1ncn(C)n1` [Compound 7R], the IC50 on TYK2 JH2 domain (setting [1]) is less than 5 nM.
For `CCOc1ccc(Nc2cc(Nc3cccc(-c4ncn(C)n4)c3OC)c(C(C)=O)cn2)nn1` [Compound 7S], on TYK2 JH2 domain (setting [1]), the half-maximal inhibitory concentration (IC50) is less than 5 nM.
Regarding `COc1c(Nc2cc(Nc3cnn(C)c3)ncc2C(C)=O)cccc1-c1ncn(C)n1` [Compound 7T], on TYK2 JH2 domain (setting [1]), the half-inhibitory concentration (IC50) was 50 to 500 nM.
`COc1c(Nc2cc(Nc3ccn(C)n3)ncc2C(C)=O)cccc1-c1ncn(C)n1` [Compound 7U]: the half-maximal inhibitory concentration (IC50) at TYK2 JH2 domain (setting [1]) is less than 5 nM.
For `CCC(=O)c1cnc(Nc2ccc(C(N)=O)cn2)cc1Nc1cccc(-c2ncn(C)n2)c1OC` [Compound 8A, 6-((4-((2-methoxy-3-(1-methyl-1H-1,2,4-triazol-3-yl)phenyl)amino)-5-propionylpyridin-2-yl)amino)nicotinamide], the IC50 is less than 5 nM at TYK2 JH2 domain (Table 20, read-out: TYK2 IC50); not below 500 nM on human JAK1; 50 to 500 nM against human JAK2; 50 to 500 nM on human JAK3.
As to `CCC(=O)c1cnc(Nc2ccc(C(=O)O)cn2)cc1Nc1cccc(-c2ncn(C)n2)c1OC` [Compound 8B], the half-maximal inhibitory concentration (IC50) was 50 to 500 nM at TYK2 JH2 domain (Table 20, read-out: TYK2 IC50); not below 500 nM against human JAK1; not below 500 nM on human JAK2; not below 500 nM on human JAK3.
In the case of `CCC(=O)c1cnc(Nc2ccc(C(=O)NC)cn2)cc1Nc1cccc(-c2ncn(C)n2)c1OC` [Compound 8C], the IC50 on TYK2 JH2 domain (Table 20, read-out: TYK2 IC50) was less than 5 nM; on human JAK1, not below 500 nM; against human JAK2, not below 500 nM; on human JAK3 it was not below 500 nM.
Take `CCC(=O)c1cnc(Nc2ccc(C(=O)N(C)C)cn2)cc1Nc1cccc(-c2ncn(C)n2)c1OC` [Compound 8D]: the IC50 at TYK2 JH2 domain (Table 20, read-out: TYK2 IC50) is less than 5 nM; on human JAK1 it was not below 500 nM; on human JAK2, not below 500 nM; against human JAK3, not below 500 nM.
For the compound `CCC(=O)c1cnc(Nc2cc(C(=O)O)ccn2)cc1Nc1cccc(-c2ncn(C)n2)c1OC` [Compound 8E], the IC50 was not below 500 nM on TYK2 JH2 domain (Table 20, read-out: TYK2 IC50); not below 500 nM against human JAK1; not below 500 nM at human JAK2; not below 500 nM on human JAK3.
With `CCC(=O)c1cnc(Nc2cc(C(N)=O)ccn2)cc1Nc1cccc(-c2ncn(C)n2)c1OC` [Compound 8F], the IC50 was less than 5 nM on TYK2 JH2 domain (Table 20, read-out: TYK2 IC50); not below 500 nM against human JAK1; not below 500 nM against human JAK2; not below 500 nM against human JAK3.
With `CCC(=O)c1cnc(Nc2cc(C(=O)NC)ccn2)cc1Nc1cccc(-c2ncn(C)n2)c1OC` [Compound 8G], the half-inhibitory concentration (IC50) at TYK2 JH2 domain (Table 20, read-out: TYK2 IC50) is less than 5 nM; against human JAK1, not below 500 nM; against human JAK2, not below 500 nM; against human JAK3, not below 500 nM.
Regarding `CCC(=O)c1cnc(Nc2cc(C(=O)N(C)C)ccn2)cc1Nc1cccc(-c2ncn(C)n2)c1OC` [Compound 8H], the IC50 at TYK2 JH2 domain (Table 20, read-out: TYK2 IC50) was less than 5 nM; against human JAK1, not below 500 nM; against human JAK2, not below 500 nM; against human JAK3, not below 500 nM.
On to `CCC(=O)c1cnc(Nc2cccc(C(=O)O)n2)cc1Nc1cccc(-c2ncn(C)n2)c1OC` [Compound 8I], for which the half-inhibitory concentration (IC50) on TYK2 JH2 domain (Table 20, read-out: TYK2 IC50) was not below 500 nM; at human JAK1, not below 500 nM; on human JAK2, not below 500 nM; against human JAK3, not below 500 nM.
Consider `CCC(=O)c1cnc(Nc2cccc(C(N)=O)n2)cc1Nc1cccc(-c2ncn(C)n2)c1OC` [Compound 8J], for which the concentration for half-maximal inhibition (IC50) at TYK2 JH2 domain (Table 20, read-out: TYK2 IC50) is less than 5 nM; against human JAK1, not below 500 nM; on human JAK2, not below 500 nM; at human JAK3 it was not below 500 nM.
Take `CCC(=O)c1cnc(Nc2cc(C(C)NC)ncn2)cc1Nc1cccc(-c2ncn(C)n2)c1OC` (stereo not shown) [Compound 9PPPP]: on human JAK2, the IC50 lay in the range of 50 to 500 nM.
As to `CCC(=O)c1cnc(Nc2ccc(CN3CCN(C)CC3)nn2)cc1Nc1cccc(-c2ncn(C)n2)c1OC` [Compound 9PPP], the IC50 at TYK2 JH2 domain (Table 20, read-out: TYK2 IC50) is 5 to 50 nM; against human JAK2, 50 to 500 nM.
In the case of `CCC(=O)c1cnc(Nc2ccc(S(=O)(=O)N(C)C)cn2)cc1Nc1cccc(-c2ncn(C)n2)c1OC` [Compound 13D], the IC50 at human JAK1, against human JAK2 and on human JAK3 was not below 500 nM throughout.
Take `CCC(=O)c1cnc(Nc2cnc(O[C@@H]3CCN(CC)C3)cn2)cc1Nc1cccc(-c2ncn(C)n2)c1OC` [Compound 18DDD]: at TYK2 JH2 domain (Table 20, read-out: TYK2 IC50), the IC50 fell in the range of 5 to 50 nM.
On the same count and under the same terms, with `CCC(=O)c1cnc(Nc2cnc(C(F)(F)CN)cn2)cc1Nc1cccc(-c2ncn(C)n2)c1OC` [Compound 19A, 1-(6-((5-(2-amino-1,1-difluoroethyl)pyrazin-2-yl)amino)-4-((2-methoxy-3-(1-methyl-1H-1,2,4-triazol-3-yl)phenyl)amino)pyridin-3-yl)propan-1-one] the figure was 5 to 50 nM.
